Measurements as given in patent US10342796B2, “Acrylanilide derivative, preparation method, and applications thereof in pharmacy” (Ancureall Pharmaceutical (Shanghai) Co., Ltd., priority 2015, dated 2019).
Where two headings read alike, the source gives them in different places.

How the values were obtained:
K562 (BCR-ABL) = assay: Growth inhibition GI50 in vitro (CCK8/MTT, 72 h); format: cell-based; details: Homo sapiens
Method: Human leukemia cell line K562 (expressing BCR-ABL fusion protein) (ATCC) was cultured with 1×RPMI1640 complete medium (supplement with 10% FBS).
(§1) The suspension cells were collected by centrifugation. The supernatant was discard and the cell pellet was resuspended and counted. Different cell concentrations (5˜10×10^4 cells/mL) were prepared according to the growth cycle of each cell line and then seeded on a 96-well plate (Corning), 100 μL/well. The cells were incubated over night at 37° C., 5% CO2. The compounds were added to the cells on the second day with 2 wells in parallel. The final concentration of organic solvent shall not exceed 1%. The cells were continually incubated for 72 h, and then subjected to MTT assay.
(§2) The present compounds and the reference compounds were dissolved with DMSO (Sigma), respectively. […] The storage concentration of compounds was 10 mM and kept at −20° C. They were diluted by 2 times or 10 times with serial dilution before using.
(§3) Dojindo CCK8 reagent kit was used as MTT assay. […] FC meter was used as microplate reader.
(§4) Adherent cell culture medium was discard and immediately replaced with fresh prepared medium which contains 10% CCK8 reagent (100 μL/well). For the suspension cells, CCK8 was directly added to 10% of the final concentration. The cells were continually incubated for 1˜4 h. When the color of control wells turned to dark yellow, the absorption value was measured at OD450 nm. The cell growth rate was calculated according to the following formula: cell growth rate (%)=100*(T−T0)/(C−T0), T=optical density of drug treatment cell well—optical density of blank control well; T0=optical density of cell well before drug treatment—optical density of blank control well; C=optical density of cell well of solvent control group—optical density of blank control well. […] The experiment was independently repeated 1˜3 times, and subject to biological statistical analysis.
(§5) Growth inhibition assay was conducted in the cell lines shown Table 14 with the different oncogene mutations. Each compound started at 1000 nM as an initial concentration and was diluted by 2 times with serial dilution to 0.03 nM.

[1] = test system: A375 (EGFR wt, BRAF V600E); assay: Growth inhibition GI50 in vitro (CCK8/MTT, 72 h); format: cell-based; details: Homo sapiens, A-375
From the text: EGFR wild type cell lines: human epidermal cancer cell line A431 (EGFR WT, amplification and high expression, from Shanghai Cell Bank of Chinese Academy of Sciences and ATCC), NSCLC cell lines NCI-H460 (EGFR WT, Kras G61H and PI3KCA E545K mutants, ATCC) and NCI-H1299 (EGFR WT, ATCC), melanoma cell line A375 (EGFR WT and BRAF V600E mutant, from Shanghai Cell Bank of Chinese Academy of Sciences, ATCC), human lung cancer cell line NCI-H292 (EGFR WT, from human lung mucoepidermoid carcinoma/lymphatic metastasis, purchased from Shanghai Cell Bank of Chinese Academy of Sciences) were cultured with 1×RPMI1640 complete medium which was supplement with 10% FBS. NSCLC cell line A549 (EGFR WT and Kras G12S mutant, from Shanghai Cell Bank of Chinese Academy of Sciences) was cultured with 1×Ham'S F12K complete medium which was supplement with 10% FBS, 1% double-antibiotics and 2 mM glutamine.
as §1, §2, §3, §4, §5

Ramos (BTK) = assay: Growth inhibition GI50 in vitro (CCK8/MTT, 72 h); format: cell-based, human; details: for GI50: Homo sapiens, Ramos, BTK; for inhibition effects: BTK+ Ramos cells
Method: RAMOS is human B lymphocytic leukemia cell line positively expressing BTK. It was cultured with 1×RPMI1640 complete medium (supplement with 10% FBS).
as §1, §2, §3, §4, §5

Pharmacokinetics in rat = format: in vivo, Sprague-Dawley (SD) rats; details: male, Sprague-Dawley, plasma, SD rat, iv 5 mg/kg, solvent water
Method: Sprague-Dawley (SD) rats (male) were purchased from Shanghai SIPPR BK Laboratory Animals Co. and kept under specific pathogen-free conditions adaptively for 7 days in the Shanghai University of Traditional Chinese Medicine animal care facility (All animal studies were conducted with the approval of the University Ethics Committee). The rats were randomly divided to 2 groups (3 rats/group) for each compound. One group was administrated by tail vein injection (iv) and the other group was intragastrically administrated. The compound was formulated into a clear aqueous solution with methanesulfonic acid, PH>3.5. The rats were starved for 12 hours before drug administration and the blood samples were collected from the orbital plexus at 0 min (before drug administration), 2 min, 5 min, 15 min, 30 min, 1 h, 2 h, 4 h, 6 h, 8 h and 24 h, respectively. Each blood sample was added to a 1.5 mL centrifuge tube with heparin sodium and then centrifuged at 8000 rpm at 4° C. for 3 min. Upper blood serum was collected. The compound concentration in plasma was determined by LC-MS/MS. The pharmacokinetics parameters were calculated with the professional pharmacokinetics software WinNonlin. The experiment was repeated once.

[2] = A375, EGFR wt, BRAF V600E, read-out: GI50

In the case of C=CC(=O)Nc1cc(Nc2nccc(-c3cn(C)c4ccccc34)n2)c(OC)cc1N(C)CCN(C)C [AZD9291, reference compound], the GI50 (K562 (BCR-ABL)) is reported as > 1000 nM, the GI50 [1] is reported as > 1000 nM and the GI50 (Ramos (BTK)) is reported as 937 nM.

In the case of C=CC(=O)Nc1cc(Nc2nccc(Nc3cccc(Cl)c3)n2)c(OC)cc1N(C)CCN(C)C [Compound 2, N-(5-(4-(3-chloro-phenylamino)-pyrimidin-2-ylamino)-2-(2-(dimethylamino-ethyl)-methyl-amino)-4-methoxyl-phenyl)-acrylamide], the GI50 (K562 (BCR-ABL)) is reported as > 1000 nM, the GI50 [1, 2] is reported as > 1000 nM and the GI50 (Ramos (BTK)) is reported as 234 nM.

With C=CC(=O)Nc1cc(Nc2nccc(Nc3ccc(OCc4ccccn4)c(Cl)c3)n2)c(OC)cc1N(C)CCN(C)C [Compound 18, N-(5-(4-(3-chloro-4-(pyridin-2-methoxyl)phenylamino)pyrimidin-2-ylamino)-2-((2-(dimethylamino)ethyl)(methyl)amino)-4-methoxyl-phenyl)-acrylamide] the GI50 (K562 (BCR-ABL)) was > 1000 nM, the bioavailability (Pharmacokinetics in rat; po 25 mg/kg) was 50.3% and the GI50 [1, 2] was > 1000 nM. For the same compound, the GI50 (Ramos (BTK)) was 937 nM.

For C=CC(=O)Nc1cc(Nc2ncc(Cl)c(Nc3ccc(OCc4ccccn4)c(Cl)c3)n2)c(OC)cc1N(C)CCN(C)C [Compound 19, N-(5-(5-chloro-4-(3-chloro-4-(pyridin-2-methoxyl)phenylamino)-pyrimidin-2-ylamino)-2-((2-(dimethylamino)ethyl)(methyl)amino)-4-methoxyl-phenyl)-acrylamide], the GI50 (K562 (BCR-ABL)) was > 1000 nM and the GI50 [1, 2] was > 1000 nM.

For C=CC(=O)Nc1cc(Nc2nccc(-n3ccc4ccc(F)cc43)n2)c(OC)cc1N(C)CCN(C)C [Compound 63, N-(5-(4-(6-fluoro-1H-indol-1-yl)-pyrimidin-2-ylamino)-2-((2-(dimethylamino)ethyl)-methyl-amino)-4-methoxyl-phenyl)-acrylamide], the bioavailability (Pharmacokinetics in rat; po 25 mg/kg) was 55.8%.

Work on C=CC(=O)Nc1cc(Nc2nccc(-n3ccc4c(OC)cccc43)n2)c(OC)cc1N(C)CCN(C)C [Compound 99, N-(5-(4-(4-methoxyl-1H-indol-1-yl)-pyrimidin-2-ylamino)-2-(2-(dimethylamino-ethyl)-methyl-amino)-4-methoxyl-phenyl)-acrylamide] yielded a bioavailability (Pharmacokinetics in rat; po 50 mg/kg) of 40.9%.

For C=CC(=O)Nc1cc(Nc2nccc(-n3cnc4ccccc43)n2)c(OC)cc1N(C)CCN(C)C [Compound 106], the GI50 (K562 (BCR-ABL)) was > 1000 nM, the GI50 [1, 2] was > 1000 nM and the GI50 (Ramos (BTK)) was 234 nM.

For C=CC(=O)Nc1cc(Nc2ncnc(Nc3cccc(F)c3)n2)c(OC)cc1N(C)CCN(C)C [Compound 114, N-(5-(4-(3-fluoro-phenylamino)-[1,3,5]triazin-2-ylamino)-2-((2-dimethylamino-ethyl)-methyl-amino)-4-methoxyl-phenyl)-acrylamide], the GI50 (K562 (BCR-ABL)) was > 1000 nM, the GI50 [1, 2] was 465 nM and the “inhibition effects” value (Ramos (BTK)) was “moderate inhibition effects”. The GI50 (Ramos (BTK)) was 96.6 nM.

With C=CC(=O)Nc1cc(Nc2ncnc(Nc3cccc(Br)c3)n2)c(OC)cc1N1CCC(N2CCCC2)CC1 [Compound 118] the GI50 (K562 (BCR-ABL)) was > 1000 nM, the GI50 [1, 2] was 465 nM and the “inhibition effects” value (Ramos (BTK)) was “moderate inhibition effects”. For the same compound, the GI50 (Ramos (BTK)) was 148 nM.

In the case of C=CC(=O)Nc1cc(Nc2cc(Nc3ccc(F)c(Cl)c3)ncn2)c(OC)cc1N(C)CCN(C)C [Compound 140, N-(5-(6-(3-chloro-4-fluoro-phenylamino)-pyrimidin-4-ylamino)-2-((2-dimethylamino-ethyl)-methyl-amino)-4-methoxyl-phenyl)-acrylamide], the GI50 (K562 (BCR-ABL)) is reported as > 1000 nM, the GI50 [1, 2] is reported as > 1000 nM and the “inhibition effects” value (Ramos (BTK)) is reported as “moderate inhibition effects”. For the same compound, the GI50 (Ramos (BTK)) was 58.6 nM.

In the case of C=CC(=O)Nc1cc(Nc2cc(Nc3ccc(F)c(Cl)c3)ncn2)c(OC)cc1N1CCN(C2CCN(C)CC2)CC1 [Compound 147, N-(5-(6-(3-chloro-4-fluoro-phenylamino)-pyrimidin-4-ylamino)-4-methoxyl-2-(4-(1-methylpiperidin-4-yl)-piperazin-1-yl)-phenyl)-acrylamide], the GI50 (K562 (BCR-ABL)) is reported as > 1000 nM, the GI50 [1, 2] is reported as > 1000 nM and the GI50 (Ramos (BTK)) is reported as 46.8 nM.

For C=CC(=O)Nc1cc(Nc2cc(-c3cn(C(C)C)c4ccccc34)ncn2)c(OC)cc1N(C)CCN(C)C [Compound 183], the GI50 (K562 (BCR-ABL)) was > 1000 nM, the GI50 [1, 2] was > 1000 nM and the “inhibition effects” value (Ramos (BTK)) was “moderate inhibition effects”. For the same compound, the GI50 (Ramos (BTK)) was 78.1 nM.
